Data from US20060069132A1, “Azolecarboxamide herbicides” (priority 2004, published 2006).
Where two headings read alike, the source gives them in different places.

How the values were obtained:
johnsongrass = experiment: Test C pre-/postemergence herbicide test; assay type: in vivo, Sorghum halepense
How it was run: (§1)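 Visual injury scores run from 0 (no effect) to 100 (complete control), assessed relative to untreated controls 12 to 14 days after treatment in the greenhouse. Chemicals were formulated in a non-phytotoxic solvent mixture with surfactant and applied to soil after planting or to emerged plants at the 1- to 4-leaf stage.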

rice = experiment: Test B pre-/postemergence herbicide test; assay type: in vivo, Oryza sativa
How it was run: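 Herbicidal effect was judged by eye on a 0–100 scale after plants stood 13 to 15 days in the greenhouse following pre- or postemergence treatment with surfactant-containing formulations.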

corn = experiment: Test C pre-/postemergence herbicide test; assay type: in vivo, Zea mays
How it was run: as §1

large crabgrass [1] = experiment: Test C pre-/postemergence herbicide test; assay type: in vivo, Digitaria sanguinalis
How it was run: as §1

redroot pigweed = experiment: Test A pre-/postemergence herbicide test; assay type: in vivo, Amaranthus retroflexus; conditions: for pest or weed control at 500 g/ha / pest or weed control at 2000 g/ha: Amaranthus retroflexus, 240 h
How it was run: (§2)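 Pre: seeded sandy loam, directed soil spray, compound in non-phytotoxic solvent + surfactant. Post: 1–2-leaf plants (2–10 cm), sprayed to runoff. Greenhouse ~10 d; visual injury vs untreated, 0–100 scale.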

large crabgrass [2] = experiment: Test A pre-/postemergence herbicide test; assay type: in vivo, Digitaria sanguinalis; conditions: for pest or weed control at 500 g/ha / pest or weed control at 2000 g/ha: Digitaria sanguinalis, 240 h
How it was run: as §2

eastern black nightshade = experiment: Test C pre-/postemergence herbicide test; assay type: in vivo, Solanum ptycanthum
How it was run: as §1

[3] = 62 g ai/ha, preemergence, scale 0 to 100
[4] = 125 g ai/ha, scale 0 (no effect) to 100 (complete control), visual, 12 to 14 days, preemergence
[5] = 250 g ai/ha, scale 0-100, preemergence
[6] = 500 g ai/ha, scale 0 to 100 (0 no effect, 100 complete control), visual, 12 to 14 days, preemergence
[7] = Postemergence, 500 g ai/ha, scale 0 to 100
[8] = Postemergence, 250 g ai/ha, scale 0 to 100, 0 no effect, 100 complete control
[9] = postemergence, 125 g ai/ha, scale 0 to 100
[10] = postemergence, 62 g ai/ha, scale 0 to 100
[11] = Postemergence, 500 g ai/ha, 0 to 100 scale, 0 no effect, 100 complete control
[12] = Postemergence, 2000 g ai/ha, 0 to 100 scale, 0 no effect, 100 complete control
[13] = Preemergence, 2000 g ai/ha, visual rating, 0 to 100 scale (0 no effect, 100 complete control)
[14] = preemergence, 500 g ai/ha, visual injury, 0 to 100 scale (0 no effect, 100 complete control)

Structure (SMILES): CCc1nn(C(C)(C)C)cc1C(=O)Nc1cc(C(=O)N(C)C)ccc1F [Compound 222, N-[5-[(dimethylamino)carbonyl]-2-fluorophenyl]-1-(1,1-dimethylethyl)-3-ethyl-1H-pyrazole-4-carboxamide]
- pest or weed control at 62 g/ha (johnsongrass; Sorghum halepense, pre-emergence, 62 g ai/ha, preemergence, scale 0 to 100, read-out: Plant response rating, Johnsongrass): 85%
- pest or weed control at 125 g/ha (johnsongrass; Sorghum halepense, pre-emergence, 125 g ai/ha, scale 0 (no effect) to 100 (complete control), visual, 12 to 14 days, read-out: Plant response rating, Johnsongrass): 100%
- pest or weed control at 250 g/ha (johnsongrass; Sorghum halepense, pre-emergence, 250 g ai/ha, scale 0-100, read-out: Plant response rating, Johnsongrass): 100%
- pest or weed control at 500 g/ha (johnsongrass; Sorghum halepense, pre-emergence, 500 g ai/ha, scale 0 to 100 (0 no effect, 100 complete control), visual, 12 to 14 days, read-out: Plant response rating, Johnsongrass): 100%
- plant injury at 125 g/ha (rice; Oryza sativa, pre-emergence, 336 h, 125 g ai/ha, 0 = no effect, 100 = complete control, read-out: Rice plant response rating (0 to 100 scale)): 90%
- plant injury at 500 g/ha (rice; Oryza sativa, pre-emergence, 336 h, 500 g ai/ha, visual rating, 0 = no effect, 100 = complete control, read-out: Plant response rating, Rice): 100%
- Corn plant response rating (crop injury, 0 = no effect, 100 = complete kill) at 62 g/ha (corn; Zea mays, pre-emergence, 312 h, 62 g ai/ha, preemergence, scale 0 to 100): 0%
- Corn plant response rating (crop injury, 0 = no effect, 100 = complete kill) at 125 g/ha (corn; Zea mays, pre-emergence, 312 h, 125 g ai/ha, scale 0 (no effect) to 100 (complete control), visual, 12 to 14 days): 20%
- Corn plant response rating (crop injury, 0 = no effect, 100 = complete kill) at 250 g/ha (corn; Zea mays, pre-emergence, 312 h, 250 g ai/ha, scale 0-100): 60%
- Corn plant response rating (crop injury, 0 = no effect, 100 = complete kill) at 500 g/ha (corn; Zea mays, pre-emergence, 312 h, 500 g ai/ha, scale 0 to 100 (0 no effect, 100 complete control), visual, 12 to 14 days): 100%
- pest or weed control at 62 g/ha (large crabgrass [1]; Digitaria sanguinalis, pre-emergence, 312 h, 62 g ai/ha, preemergence, scale 0 to 100, read-out: Plant response rating, Crabgrass, Large): 100%
- pest or weed control at 125 g/ha (large crabgrass [1]; Digitaria sanguinalis, pre-emergence, 312 h, 125 g ai/ha, scale 0 (no effect) to 100 (complete control), visual, 12 to 14 days, read-out: Plant response rating, Crabgrass, Large): 100%
- pest or weed control at 250 g/ha (large crabgrass [1]; Digitaria sanguinalis, pre-emergence, 312 h, 250 g ai/ha, scale 0-100, read-out: Plant response rating, Crabgrass, Large): 100%
- pest or weed control at 500 g/ha (large crabgrass [1]; Digitaria sanguinalis, pre-emergence, 312 h, 500 g ai/ha, scale 0 to 100 (0 no effect, 100 complete control), visual, 12 to 14 days, read-out: Plant response rating, Crabgrass, Large): 100%
- pest or weed control at 500 g/ha (redroot pigweed; post-emergence, Postemergence, 500 g ai/ha, 0 to 100 scale, 0 no effect, 100 complete control, read-out: Pigweed plant response rating): 75%
- pest or weed control at 2000 g/ha (redroot pigweed; post-emergence, Postemergence, 2000 g ai/ha, 0 to 100 scale, 0 no effect, 100 complete control, read-out: Plant response rating, Pigweed): 100%
- pest or weed control at 2000 g/ha (redroot pigweed; pre-emergence, Preemergence, 2000 g ai/ha, visual rating, 0 to 100 scale (0 no effect, 100 complete control), read-out: Pigweed plant response rating): 90%
- pest or weed control at 500 g/ha (redroot pigweed; pre-emergence, preemergence, 500 g ai/ha, visual injury, 0 to 100 scale (0 no effect, 100 complete control), read-out: Pigweed plant response rating): 90%
- pest or weed control at 500 g/ha (large crabgrass [2]; post-emergence, Postemergence, 500 g ai/ha, 0 to 100 scale, 0 no effect, 100 complete control, read-out: Crabgrass, Large plant response rating): 80%
- pest or weed control at 2000 g/ha (large crabgrass [2]; post-emergence, Postemergence, 2000 g ai/ha, 0 to 100 scale, 0 no effect, 100 complete control, read-out: Plant response rating, Crabgrass, Large): 85%
- pest or weed control at 2000 g/ha (large crabgrass [2]; pre-emergence, Preemergence, 2000 g ai/ha, visual rating, 0 to 100 scale (0 no effect, 100 complete control), read-out: Crabgrass, Large plant response rating): 95%
- pest or weed control at 500 g/ha (large crabgrass [2]; pre-emergence, preemergence, 500 g ai/ha, visual injury, 0 to 100 scale (0 no effect, 100 complete control), read-out: Crabgrass, Large plant response rating): 100%
- pest or weed control at 62 g/ha (eastern black nightshade; pre-emergence, 62 g ai/ha, preemergence, scale 0 to 100, read-out: Plant response rating, Nightshade): 85%
- pest or weed control at 125 g/ha (eastern black nightshade; pre-emergence, 125 g ai/ha, scale 0 (no effect) to 100 (complete control), visual, 12 to 14 days, read-out: Plant response rating, Nightshade): 100%
- pest or weed control at 250 g/ha (eastern black nightshade; pre-emergence, 250 g ai/ha, scale 0-100, read-out: Plant response rating, Nightshade): 100%
- pest or weed control at 500 g/ha (eastern black nightshade; pre-emergence, 500 g ai/ha, scale 0 to 100 (0 no effect, 100 complete control), visual, 12 to 14 days, read-out: Plant response rating, Nightshade): 100%

Structure (SMILES): C=CCNC(=O)c1cccc(NC(=O)c2cc(C(C)(C)C)nn2C)n1 [Compound 318]
- Plant response rating, Johnsongrass (johnsongrass; [3]): 0
- Plant response rating, Johnsongrass (johnsongrass; [4]): 0
- Plant response rating, Johnsongrass (johnsongrass; [5]): 60
- Plant response rating, Johnsongrass (johnsongrass; [6]): 95
- Johnsongrass plant response rating (johnsongrass; [7]): 0
- Plant response rating, Johnsongrass (johnsongrass; [8]): 0
- Plant response rating, Johnsongrass (johnsongrass; [9]): 0
- Plant response rating, Johnsongrass (johnsongrass; [10]): 0
- Plant response rating (0 to 100 scale), Rice (rice; 125 g ai/ha, 0 is no effect, 100 is complete control, preemergence): 0
- Plant response rating, Rice (rice; 500 g ai/ha, visual rating, 0 = no effect, 100 = complete control, preemergence): 50
- Plant response rating, Corn (corn; [3]): 0
- Plant response rating, Corn (corn; [4]): 0
- Plant response rating, Corn (corn; [5]): 10
- Plant response rating, Corn (corn; [6]): 40
- Corn plant response rating (corn; [7]): 25
- Plant response rating, Corn (corn; [8]): 10
- Plant response rating, Corn (corn; [9]): 10
- Plant response rating, Corn (corn; [10]): 0
- Plant response rating, Crabgrass, Large (large crabgrass [1]; [4]): 50
- Plant response rating, Crabgrass, Large (large crabgrass [1]; [5]): 60
- Plant response rating, Crabgrass, Large (large crabgrass [1]; [6]): 100
- Crabgrass, Large plant response rating (large crabgrass [1]; [7]): 50
- Plant response rating, Crabgrass, Large (large crabgrass [1]; [8]): 30
- Plant response rating, Crabgrass, Large (large crabgrass [1]; [9]): 0
- Plant response rating, Crabgrass, Large (large crabgrass [1]; [10]): 0
- Pigweed plant response rating (redroot pigweed; [11]): 95
- Plant response rating, Pigweed (redroot pigweed; [12]): 100
- Pigweed plant response rating (redroot pigweed; [13]): 100
- Pigweed plant response rating (redroot pigweed; [14]): 75
- Crabgrass, Large plant response rating (large crabgrass [2]; [11]): 30
- Plant response rating, Crabgrass, Large (large crabgrass [2]; [12]): 70
- Crabgrass, Large plant response rating (large crabgrass [2]; [13]): 70
- Crabgrass, Large plant response rating (large crabgrass [2]; [14]): 55
- Plant response rating, Nightshade (eastern black nightshade; [3]): 80
- Plant response rating, Nightshade (eastern black nightshade; [4]): 90
- Plant response rating, Nightshade (eastern black nightshade; [5]): 95
- Plant response rating, Nightshade (eastern black nightshade; [6]): 95
